Our source for the IC50 values is PubChem BioAssay AID1117350 (Cheminformatics & Chemogenomics Research Group (CCRG), …, 2015).

Structures are written as SMILES. Active and inactive are the calls of the source. The rule behind the calls is not given here.

What is called IC50 is the concentration that gives 50% inhibition.

The assay has as its system HeLa, chromatin condensation phenotype imaging. Description: condensed chromatin phenotype in HeLa cells – imaging, IC50, dose response (AID 1117350).
As for `Nc1nc(=S)c2[nH]cnc2[nH]1`, the IC50 is > 10 µM (inactive).

Regarding `C1CN(P2(N3CC3)=NP(N3CC3)(N3CC3)=NP(N3CC3)(N3CC3)=N2)CCO1` (stereo unspecified), the IC50 is > 10 µM (inactive).

For the compound `CCc1oc2ccccc2c1C(=O)c1cc(Br)c(O)c(Br)c1`, the IC50 was > 10 µM (inactive). Then `O=C(c1cc(O)c(O)c(O)c1)c1ccc(O)c(O)c1O`, with > 10 µM (inactive). Then `CC(C)c1c(C(=O)Nc2ccccc2)c(-c2ccccc2)c(-c2ccc(F)cc2)n1CC[C@@H](O)C[C@@H](O)CC(=O)O`, with > 10 µM (inactive). Turning to `O=C1c2c(O)ccc(O)c2C(=O)c2c(NCCNCCO)ccc(NCCNCCO)c21`, the IC50 is > 10 µM (inactive).

In the case of `Cc1nc(Nc2ncc(C(=O)Nc3c(C)cccc3Cl)s2)cc(N2CCN(CCO)CC2)n1`, the IC50 is > 10 µM (inactive). Then `COCc1c(C(C)C)nc(C(C)C)c(/C=C/[C@@H](O)C[C@@H](O)CC(=O)O)c1-c1ccc(F)cc1`, with > 10 µM (inactive); and `CCN(CCCCOC(=O)c1ccc(OC)c(OC)c1)C(C)Cc1ccc(OC)cc1` (stereo unspecified), with > 10 µM (inactive); and `COCCOC(=O)C1=C(C)NC(C)=C(C(=O)OC/C=C/c2ccccc2)C1c1cccc([N+](=O)[O-])c1` (stereo unspecified), with > 10 µM (inactive).

For `Cc1ccc2nc(N)[nH]c(=O)c2c1Sc1ccncc1`, the IC50 was > 10 µM (inactive). Then `CC(=O)O[C@@]12CO[C@@H]1C[C@H](O)[C@@]1(C)C(=O)[C@H](O)C3=C(C)[C@@H](OC(=O)[C@H](O)[C@@H](NC(=O)OC(C)(C)C)c4ccccc4)C[C@@](O)([C@@H](OC(=O)c4ccccc4)[C@H]21)C3(C)C`, with 0.00317 µM; and `COc1cc(NCc2ccc3nc(N)nc(N)c3c2C)cc(OC)c1OC`, with > 10 µM (inactive). Then `Cc1ccc(CCn2c3c(c4cc(Cl)ccc42)CN(C)CC3)cn1`, with > 10 µM (inactive); and `NCCCC[C@H](N[C@@H](CCc1ccccc1)C(=O)O)C(=O)N1CCC[C@H]1C(=O)O`, with > 10 µM (inactive); and `CCN(CC)CCOc1ccc(/C(=C(\Cl)c2ccccc2)c2ccccc2)cc1`, with > 10 µM (inactive).

`O=C1C2CC=CCC2C(=O)N1SC(Cl)(Cl)Cl` (stereo unspecified): the IC50 is 6.14 µM (inactive).

For the compound `O=C1c2c(O)cccc2Cc2cccc(O)c21`, the IC50 was > 10 µM (inactive).

`O=C(Nc1ccc(Br)cc1)c1cc(Br)cc(Br)c1O`: the IC50 was > 10 µM (inactive).

For `C[C@]12CC[C@@H]3c4ccc(O)cc4CC[C@H]3[C@@H]1CC[C@@H]2OC(=O)CCC1CCCC1`, the IC50 was > 10 µM (inactive). With `CC(=O)Oc1ccccc1C(=O)Nc1ncc([N+](=O)[O-])s1`, the IC50 is > 10 µM (inactive). Then `O=c1[nH]c(=O)n([C@H]2C[C@H](O)[C@@H](CO)O2)cc1F`, with > 10 µM (inactive); and `CCCCOC(=O)c1ccc(N)cc1`, with > 10 µM (inactive).

`CCCCCCCCCCCCCCCCNc1ccc(C(=O)O)cc1`: the IC50 is > 10 µM (inactive).

Regarding `CCCCCCCCCCCCCCCC[N+](C)(C)Cc1ccccc1`, the IC50 is > 10 µM (inactive). For `CC(C)=CCC/C(C)=C/CC/C(C)=C/C(=O)OCC(=O)[C@@]1(O)CC[C@H]2[C@@H]3CCC4=CC(=O)C=C[C@]4(C)[C@H]3[C@@H](O)C[C@@]21C` the value was > 10 µM (inactive); for `C[C@@H](O[C@H]1OCCN(Cc2n[nH]c(=O)[nH]2)[C@H]1c1ccc(F)cc1)c1cc(C(F)(F)F)cc(C(F)(F)F)c1`, > 10 µM (inactive). On to `CN1CC[C@H](c2c(O)cc(O)c3c(=O)cc(-c4ccccc4Cl)oc23)[C@H](O)C1`, for which the IC50 was 0.0807 µM.

Turning to `COc1ccc(Cc2nccc3cc(OC)c(OC)cc23)cc1OC`, the IC50 was > 10 µM (inactive).

Take `Cc1cc2c(C(C)C)c(O)c(O)c(C=O)c2c(O)c1-c1c(C)cc2c(C(C)C)c(O)c(O)c(C=O)c2c1O`: the IC50 was > 10 µM (inactive). Then `CC(C)=CCOc1ccc(/C=C/C(=O)c2ccc(OCC=C(C)C)cc2OCC(=O)O)cc1`, with > 10 µM (inactive); and `O=C1C(I)=CC(=C(c2cc(I)c(O)c(I)c2)c2ccccc2C(=O)O)C=C1I`, with > 10 µM (inactive). `CCC(C)(C)C(=O)O[C@H]1C[C@@H](C)C=C2C=C[C@H](C)[C@H](CC[C@@H]3C[C@@H](O)CC(=O)O3)[C@H]21`: the IC50 was > 10 µM (inactive). Turning to `Cc1cc(C2CCCCC2)n(O)c(=O)c1`, the IC50 was > 10 µM (inactive). `CCN(CC)CCCC(C)Nc1c2ccc(Cl)cc2nc2ccc(OC)cc12` (stereo unspecified): the IC50 was 8.58 µM (inactive). With `CSc1ccc2c(c1)C(N1CCN(C)CC1)Cc1ccccc1S2` (stereo unspecified), the IC50 is > 10 µM (inactive). As to `NC(N)=NN=C(/C=C/c1ccc([N+](=O)[O-])o1)/C=C/c1ccc([N+](=O)[O-])o1`, the IC50 was > 10 µM (inactive). Then `O=[N+]([O-])c1ccc(Oc2ccc(N=C=S)cc2)cc1`, with > 10 µM (inactive); and `CC(=O)Oc1ccc(C2(c3ccc(OC(C)=O)cc3)Oc3ccccc3NC2=O)cc1`, with > 10 µM (inactive). For `Cc1cc(N)c2ccccc2[n+]1CCCCCCCCCC[n+]1c(C)cc(N)c2ccccc21` the value was > 10 µM (inactive); for `O=C1C(=O)c2ccccc2C(O)=C1C1CCC(c2ccc(Cl)cc2)CC1` (stereo unspecified), > 10 µM (inactive); for `COc1ccc2cc3[n+](cc2c1OC)CCc1cc2c(cc1-3)OCO2`, > 10 µM (inactive).

For `Oc1c(Cl)cc(Cl)cc1Sc1cc(Cl)cc(Cl)c1O`, the IC50 is > 10 µM (inactive). For `O=C1[C@H]2CCCC[C@H]2C(=O)N1CCCCN1CCN(c2nsc3ccccc23)CC1` the value was > 10 µM (inactive). For the compound `CCCCC1C(=O)N(c2ccccc2)N(c2ccc(O)cc2)C1=O` (stereo unspecified), the IC50 is > 10 µM (inactive). For `CN(Cc1cnc2nc(N)nc(N)c2n1)c1ccc(C(=O)N[C@@H](CCC(=O)O)C(=O)O)cc1` the value was > 10 µM (inactive).

With `C[C@@H]1C[C@H]2[C@@H]3CCC4=CC(=O)C=C[C@]4(C)[C@@]3(Cl)[C@@H](O)C[C@]2(C)[C@@]1(OC(=O)c1ccco1)C(=O)CCl`, the IC50 is > 10 µM (inactive). Regarding `CC(C)OC(=O)OCOP(=O)(CO[C@H](C)Cn1cnc2c(N)ncnc21)OCOC(=O)OC(C)C`, the IC50 was > 10 µM (inactive).

As to `O=c1[nH]c(=O)n([C@H]2C[C@H](O)[C@@H](CO)O2)cc1I`, the IC50 was > 10 µM (inactive).

Take `Cc1cc(O)c2ccccc2c1O`: the IC50 is > 10 µM (inactive).

On to `Cc1ccccc1C(OCCN(C)C)c1ccccc1` (stereo unspecified), for which the IC50 is > 10 µM (inactive).

Take `CN1CCC(Nc2ncc3ncnc(Nc4ccc(F)c(Cl)c4)c3n2)CC1`: the IC50 was > 10 µM (inactive). In the case of `O=Cc1ccc(O)c(O)c1O`, the IC50 is > 10 µM (inactive). Turning to `Cc1nc2ccc(CN(C)c3ccc(C(=O)N[C@@H](CCC(=O)O)C(=O)O)s3)cc2c(=O)[nH]1`, the IC50 is > 10 µM (inactive).

As for `CN(C)c1ccc2nc3ccc(=[N+](C)C)cc-3sc2c1`, the IC50 is > 10 µM (inactive). On to `Cc1c(C)c2c(c(C)c1O)CCC(C)(COc1ccc(CC3SC(=O)NC3=O)cc1)O2` (stereo unspecified), for which the IC50 was > 10 µM (inactive).
